Data reported in patent US12281149B2, “Modulators of G-protein coupled receptors” (priority 2021, dated 2025).
*1 amine or outer side, *2 acyl side, *3 side chain or, on linkers, in order; H or OH if unused. Where a SMILES comes first, the peptide text is derived from it. Side-chain parts run from the residue outwards. [ ]: non-standard residue; d: D form. The star is where a group is joined. Isobutyryl(2-(3-CN-5-F-Ph)) = CC(C)(C(=O)*)c1cc(F)cc(C#N)c1; C20 diacid = O=C(O)CCCCCCCCCCCCCCCCCCC(=O)*; X75 = C[C@@](Cc1nn[nH]n1)(N[*:1])C(=O)[*:2]; γGlu = O=C(O)[C@H](CCC(=O)[*:2])N[*:1]; X27 = O=C1CC(C(=O)*)(c2ccccc2)CN1; X14 = CC(C)(C(=O)*)n1cc(Br)cn1; X25 = CC(C)(C(=O)*)n1cc(F)cn1; AEEA = NCCOCCOCC(=O)O; Aib = CC(C)(N)C(=O)O; βAla = NCCC(=O)O

Legend:
Type in all cases: cell-based
[1] = target: T1, GLP-1 receptor (Homo sapiens, UniProt P43220); test: HitHunter cAMP assay, GLP-1 receptor; details: for EC50: CHO cells stably expressing human GLP-1 receptor, cAMP accumulation, 30 min, read-out: EC50 GLP-1R; for Emax: CHO cells, cAMP, normalized to maximum signal from GLP-1 (high) and DMSO (low), read-out: Emax GLP-1R
T1 sequence (P43220 24-463): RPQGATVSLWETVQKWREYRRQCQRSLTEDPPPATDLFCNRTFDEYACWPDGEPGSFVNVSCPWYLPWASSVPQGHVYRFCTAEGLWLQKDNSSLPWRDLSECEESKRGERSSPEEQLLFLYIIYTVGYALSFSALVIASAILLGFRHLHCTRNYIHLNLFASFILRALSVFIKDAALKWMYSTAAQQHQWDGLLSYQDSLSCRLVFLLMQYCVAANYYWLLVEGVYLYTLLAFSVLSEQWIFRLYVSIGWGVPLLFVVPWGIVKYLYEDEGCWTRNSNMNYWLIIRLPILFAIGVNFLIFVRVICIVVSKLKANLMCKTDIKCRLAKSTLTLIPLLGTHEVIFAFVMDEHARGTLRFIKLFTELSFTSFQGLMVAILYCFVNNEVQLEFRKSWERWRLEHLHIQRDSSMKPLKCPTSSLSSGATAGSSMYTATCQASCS

[2] = target: T1, GLP-1 receptor; test: PathHunter β-arrestin assay, GLP-1 receptor; parameters: host or cells: PathHunter CHO-K1 GLP1R β-Arrestin Cell Line; details: β-arrestin-2 recruitment, PathHunter CHO-K1 GLP1R β-Arrestin Cell Line, 90 min at 37° C.; normalized to GLP-1; read-out: GLP-1R β Arrestin EC50
[3] = target: T2, GIP receptor (Homo sapiens, UniProt P48546); test: HitHunter cAMP assay, GIP receptor; details: for EC50: CHO cells stably expressing GIP receptor, cAMP accumulation, 30 min, read-out: EC50 GIP-1R; for Emax: CHO cells, cAMP, normalized to maximum signal from GIP (high) and DMSO (low), read-out: Emax GIP-1R
T2 sequence (P48546 22-466): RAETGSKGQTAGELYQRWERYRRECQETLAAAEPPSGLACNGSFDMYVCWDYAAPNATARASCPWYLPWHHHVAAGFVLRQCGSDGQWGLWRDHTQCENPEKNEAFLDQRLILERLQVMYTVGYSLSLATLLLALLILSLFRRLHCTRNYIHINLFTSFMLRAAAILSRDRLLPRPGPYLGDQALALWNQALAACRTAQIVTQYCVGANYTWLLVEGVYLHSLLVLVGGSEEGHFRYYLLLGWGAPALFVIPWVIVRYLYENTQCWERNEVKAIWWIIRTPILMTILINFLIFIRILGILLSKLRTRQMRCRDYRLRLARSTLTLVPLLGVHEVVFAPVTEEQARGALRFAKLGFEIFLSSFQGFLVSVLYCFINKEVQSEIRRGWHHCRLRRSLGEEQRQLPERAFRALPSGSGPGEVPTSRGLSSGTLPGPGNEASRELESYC

[4] = target: T2, GIP receptor; test: PathHunter β-arrestin assay, GIP receptor; parameters: host or cells: PathHunter CHO-K1 GIPR β-Arrestin Cell Line; details: β-arrestin-2 recruitment, PathHunter CHO-K1 GIPR β-Arrestin Cell Line, 90 min at 37° C.; normalized to GIP; read-out: GIPR β Arrestin EC50

SMILES | EC50 [1] [nM] | Emax [1] [%] | EC50 [2] [nM] | EC50 [3] [nM] | Emax [3] [%] | EC50 [4] [nM]
CC[C@H](C)[C@H](NC(=O)[C@H](CC(C)C)NC(=O)[C@H](Cc1c[nH]c2ccccc12)NC(=O)[C@H](CCC(N)=O)NC(=O)[C@@H](NC(=O)[C@H](Cc1ccccc1)NC(=O)[C@H](C)NC(=O)[C@H](CCCCNC(=O)COCCOCCNC(=O)COCCOCCNC(=O)CC[C@H](NC(=O)CCCCCCCCCCCCCCCCCCC(=O)O)C(=O)O)NC(=O)[C@H](CCC(N)=O)NC(=O)[C@H](C)NC(=O)[C@@H](NC(=O)[C@H](CCCCN)NC(=O)[C@H](CC(=O)O)NC(=O)[C@H](CC(C)C)NC(=O)C(C)(C)NC(=O)[C@@H](NC(=O)[C@H](CO)NC(=O)[C@H](Cc1ccc(O)cc1)NC(=O)[C@H](CC(=O)O)NC(=O)[C@H](CO)NC(=O)[C@@H](NC(=O)[C@H](Cc1ccccc1)NC(=O)[C@@H](NC(=O)CNC(=O)[C@@H](CC(=O)O)NC(=O)CCNC(=O)C1(c2ccccc2)CNC(=O)C1)[C@@H](C)O)[C@@H](C)O)[C@@H](C)CC)[C@@H](C)CC)C(C)C)C(=O)N[C@@H](C)C(=O)NCC(=O)NCC(=O)N1CCC[C@H]1C(=O)N[C@@H](CO)C(=O)N[C@@H](CO)C(=O)NCC(=O)N[C@@H](C)C(=O)N1CCC[C@H]1C(=O)N1CCC[C@H]1C(=O)N1CCC[C@H]1C(=O)N[C@@H](CO)C(N)=O (stereo partly drawn) [Compound 122] ({X27-βAla}-[dD]GTFTSDYSI[Aib]LDKIAQK([AEEA-AEEA-γGlu-C20 diacid])AFVQWLIAGGPSSGAPPPS-NH2) | 1 to 10 | 100 | > 1000 | 10 to 100 | 92 | < 1000
CC[C@H](C)[C@H](NC(=O)[C@H](CC(C)C)NC(=O)[C@H](Cc1c[nH]c2ccccc12)NC(=O)[C@H](CCC(N)=O)NC(=O)[C@@H](NC(=O)[C@H](Cc1ccccc1)NC(=O)[C@H](C)NC(=O)[C@H](CCCCNC(=O)COCCOCCNC(=O)COCCOCCNC(=O)CC[C@H](NC(=O)CCCCCCCCCCCCCCCCCCC(=O)O)C(=O)O)NC(=O)[C@H](CCC(N)=O)NC(=O)[C@H](C)NC(=O)[C@@H](NC(=O)[C@H](CCCCN)NC(=O)[C@H](CC(=O)O)NC(=O)[C@H](CC(C)C)NC(=O)C(C)(C)NC(=O)[C@@H](NC(=O)[C@H](CO)NC(=O)[C@H](Cc1ccc(O)cc1)NC(=O)[C@H](CC(=O)O)NC(=O)[C@H](CO)NC(=O)[C@@H](NC(=O)[C@H](Cc1ccccc1)NC(=O)[C@@H](NC(=O)CNC(=O)[C@](C)(Cc1nn[nH]n1)NC(=O)CCNC(=O)C(C)(C)c1cc(F)cc(C#N)c1)[C@@H](C)O)[C@@H](C)O)[C@@H](C)CC)[C@@H](C)CC)C(C)C)C(=O)N[C@@H](C)C(=O)NCC(=O)NCC(=O)N1CCC[C@H]1C(=O)N[C@@H](CO)C(=O)N[C@@H](CO)C(=O)NCC(=O)N[C@@H](C)C(=O)N1CCC[C@H]1C(=O)N1CCC[C@H]1C(=O)N1CCC[C@H]1C(=O)N[C@@H](CO)C(N)=O [Compound 126] ({Isobutyryl(2-(3-CN-5-F-Ph))-βAla}-[X75]GTFTSDYSI[Aib]LDKIAQK([AEEA-AEEA-γGlu-C20 diacid])AFVQWLIAGGPSSGAPPPS-NH2) | 100 to 1000 | 59 | > 1000 | 100 to 1000 | 97 | > 1000
CC[C@H](C)[C@H](NC(=O)[C@H](CC(C)C)NC(=O)[C@H](Cc1c[nH]c2ccccc12)NC(=O)[C@H](CCC(N)=O)NC(=O)[C@@H](NC(=O)[C@H](Cc1ccccc1)NC(=O)[C@H](C)NC(=O)[C@H](CCCCNC(=O)COCCOCCNC(=O)COCCOCCNC(=O)CC[C@H](NC(=O)CCCCCCCCCCCCCCCCCCC(=O)O)C(=O)O)NC(=O)[C@H](CCC(N)=O)NC(=O)[C@H](C)NC(=O)[C@@H](NC(=O)[C@H](CCCCN)NC(=O)[C@H](CC(=O)O)NC(=O)[C@H](CC(C)C)NC(=O)C(C)(C)NC(=O)[C@@H](NC(=O)[C@H](CO)NC(=O)[C@H](Cc1ccc(O)cc1)NC(=O)[C@H](CC(=O)O)NC(=O)[C@H](CO)NC(=O)[C@@H](NC(=O)[C@H](Cc1ccccc1)NC(=O)[C@@H](NC(=O)CNC(=O)[C@@H](CC(=O)O)NC(=O)CCNC(=O)C(C)(C)c1cc(F)cc(C#N)c1)[C@@H](C)O)[C@@H](C)O)[C@@H](C)CC)[C@@H](C)CC)C(C)C)C(=O)N[C@@H](C)C(=O)NCC(=O)NCC(=O)N1CCC[C@H]1C(=O)N[C@@H](CO)C(=O)N[C@@H](CO)C(=O)NCC(=O)N[C@@H](C)C(=O)N1CCC[C@H]1C(=O)N1CCC[C@H]1C(=O)N1CCC[C@H]1C(=O)N[C@@H](CO)C(N)=O [Compound 127] ({Isobutyryl(2-(3-CN-5-F-Ph))-βAla}-[dD]GTFTSDYSI[Aib]LDKIAQK([AEEA-AEEA-γGlu-C20 diacid])AFVQWLIAGGPSSGAPPPS-NH2) | 1 to 10 | 93 | > 1000 | 100 to 1000 | 82 | > 1000
CC[C@H](C)[C@H](NC(=O)[C@H](CC(C)C)NC(=O)[C@H](Cc1c[nH]c2ccccc12)NC(=O)[C@H](CCC(N)=O)NC(=O)[C@@H](NC(=O)[C@H](Cc1ccccc1)NC(=O)[C@H](C)NC(=O)[C@H](CCCCNC(=O)COCCOCCNC(=O)COCCOCCNC(=O)CC[C@H](NC(=O)CCCCCCCCCCCCCCCCCCC(=O)O)C(=O)O)NC(=O)[C@H](CCC(N)=O)NC(=O)[C@H](C)NC(=O)[C@@H](NC(=O)[C@H](CCCCN)NC(=O)[C@H](CC(=O)O)NC(=O)[C@H](CC(C)C)NC(=O)C(C)(C)NC(=O)[C@@H](NC(=O)[C@H](CO)NC(=O)[C@H](Cc1ccc(O)cc1)NC(=O)[C@H](CC(=O)O)NC(=O)[C@H](CO)NC(=O)[C@@H](NC(=O)[C@H](Cc1ccccc1)NC(=O)[C@@H](NC(=O)CNC(=O)[C@H](CCC(=O)O)NC(=O)CCNC(=O)C(C)(C)n1cc(Br)cn1)[C@@H](C)O)[C@@H](C)O)[C@@H](C)CC)[C@@H](C)CC)C(C)C)C(=O)N[C@@H](C)C(=O)NCC(=O)NCC(=O)N1CCC[C@H]1C(=O)N[C@@H](CO)C(=O)N[C@@H](CO)C(=O)NCC(=O)N[C@@H](C)C(=O)N1CCC[C@H]1C(=O)N1CCC[C@H]1C(=O)N1CCC[C@H]1C(=O)N[C@@H](CO)C(N)=O [Compound 131] ({X14-βAla}-EGTFTSDYSI[Aib]LDKIAQK([AEEA-AEEA-γGlu-C20 diacid])AFVQWLIAGGPSSGAPPPS-NH2) | 0.1 to 1 | 102 | > 1000 | 10 to 100 | 96 | > 1000
CC[C@H](C)[C@H](NC(=O)[C@H](CC(C)C)NC(=O)[C@H](Cc1c[nH]c2ccccc12)NC(=O)[C@H](CCC(N)=O)NC(=O)[C@@H](NC(=O)[C@H](Cc1ccccc1)NC(=O)[C@H](C)NC(=O)[C@H](CCCCNC(=O)COCCOCCNC(=O)COCCOCCNC(=O)CC[C@H](NC(=O)CCCCCCCCCCCCCCCCCCC(=O)O)C(=O)O)NC(=O)[C@H](CCC(N)=O)NC(=O)[C@H](C)NC(=O)[C@@H](NC(=O)[C@H](CCCCN)NC(=O)[C@H](CC(=O)O)NC(=O)[C@H](CC(C)C)NC(=O)C(C)(C)NC(=O)[C@@H](NC(=O)[C@H](CO)NC(=O)[C@H](Cc1ccc(O)cc1)NC(=O)[C@H](CC(=O)O)NC(=O)[C@H](CO)NC(=O)[C@@H](NC(=O)[C@H](Cc1ccccc1)NC(=O)[C@@H](NC(=O)CNC(=O)[C@H](CCC(=O)O)NC(=O)CCNC(=O)C(C)(C)n1cc(F)cn1)[C@@H](C)O)[C@@H](C)O)[C@@H](C)CC)[C@@H](C)CC)C(C)C)C(=O)N[C@@H](C)C(=O)NCC(=O)NCC(=O)N1CCC[C@H]1C(=O)N[C@@H](CO)C(=O)N[C@@H](CO)C(=O)NCC(=O)N[C@@H](C)C(=O)N1CCC[C@H]1C(=O)N1CCC[C@H]1C(=O)N1CCC[C@H]1C(=O)N[C@@H](CO)C(N)=O [Compound 132] ({X25-βAla}-EGTFTSDYSI[Aib]LDKIAQK([AEEA-AEEA-γGlu-C20 diacid])AFVQWLIAGGPSSGAPPPS-NH2) | < 0.1 | 98 | < 1000 | 10 to 100 | 104 | > 1000
